Assay results taken from patent publication US7785828B1 (priority 2003, dated 2010).

Key:
Type in all cases: cell-based
Mycosphaerella fijiensis = system: Mycosphaerella fijiensis
Fusarium graminearum = system: Fusarium graminearum
Septoria tritici = system: Septoria tritici

Sequence | Antifungal activity, Mycosphaerella fijiensis (improvement compared to DmAMP1) (Mycosphaerella fijiensis) | Antifungal activity, Fusarium graminearum (improvement compared to DmAMP1) (Fusarium graminearum) | Antifungal activity, Septoria tritici (improvement compared to DmAMP1) (Septoria tritici)
NLCEKASKTWSGNCGNTGHCDTQCKNWEGAKHGACHVRNGKHKCFCYFNC (Defensin like) [L5-12] | + (key: + indicating 1- to 5-fold improvement compared to DmAMP1; ++ indicating >5- to 10-fold improvement; +++ indicating >10-fold improvement) | ++ (key: + indicating 1- to 5-fold improvement compared to DmAMP1; ++ indicating >5- to 10-fold improvement; +++ indicating >10-fold improvement) | ++ (key: + indicating 1- to 5-fold improvement compared to DmAMP1; ++ indicating >5- to 10-fold improvement; +++ indicating >10-fold improvement)
NLCEKASKTWSGNCGNTKHCDNQCKNWEGAAHGACHVRNGKHKCFCYFNC (Defensin like) [L6-70] | + (key: + indicating 1- to 5-fold improvement compared to DmAMP1; ++ indicating >5- to 10-fold improvement; +++ indicating >10-fold improvement) | +++ (key: + indicating 1- to 5-fold improvement compared to DmAMP1; ++ indicating >5- to 10-fold improvement; +++ indicating >10-fold improvement) | + (key: + indicating 1- to 5-fold improvement compared to DmAMP1; ++ indicating >5- to 10-fold improvement; +++ indicating >10-fold improvement)
NLCEKASKTWSGNCGNTKHCDNQCRSWEGAKHGACHVRNGKHKCFCYFNC (Defensin like) [L9-23] | ++ (key: + indicating 1- to 5-fold improvement compared to DmAMP1; ++ indicating >5- to 10-fold improvement; +++ indicating >10-fold improvement) | +++ (key: + indicating 1- to 5-fold improvement compared to DmAMP1; ++ indicating >5- to 10-fold improvement; +++ indicating >10-fold improvement) | ++ (key: + indicating 1- to 5-fold improvement compared to DmAMP1; ++ indicating >5- to 10-fold improvement; +++ indicating >10-fold improvement)
NLCEKASKTWSGNCGNTKHCDTQCKSWEGAKHGACHVRNGKHKCFCYFNC (Defensin like) [L5-13] | + (key: + indicating 1- to 5-fold improvement compared to DmAMP1; ++ indicating >5- to 10-fold improvement; +++ indicating >10-fold improvement) | +++ (key: + indicating 1- to 5-fold improvement compared to DmAMP1; ++ indicating >5- to 10-fold improvement; +++ indicating >10-fold improvement) | +++ (key: + indicating 1- to 5-fold improvement compared to DmAMP1; ++ indicating >5- to 10-fold improvement; +++ indicating >10-fold improvement)
NLCEKASKTWSGNCGNTKHCDTQCRNWEGAKHGACHKRNGKWKCFCYFNC (Defensin like) [L9-46] | ++ (key: + indicating 1- to 5-fold improvement compared to DmAMP1; ++ indicating >5- to 10-fold improvement; +++ indicating >10-fold improvement) | +++ (key: + indicating 1- to 5-fold improvement compared to DmAMP1; ++ indicating >5- to 10-fold improvement; +++ indicating >10-fold improvement) | +++ (key: + indicating 1- to 5-fold improvement compared to DmAMP1; ++ indicating >5- to 10-fold improvement; +++ indicating >10-fold improvement)
NLCEKASKTWSGNCGNTKHCDTQCRNWEGAKHGACHVRNGKHKCFCYFNC (Defensin like) [L6-13] | ++ (key: + indicating 1- to 5-fold improvement compared to DmAMP1; ++ indicating >5- to 10-fold improvement; +++ indicating >10-fold improvement) | +++ (key: + indicating 1- to 5-fold improvement compared to DmAMP1; ++ indicating >5- to 10-fold improvement; +++ indicating >10-fold improvement) | +++ (key: + indicating 1- to 5-fold improvement compared to DmAMP1; ++ indicating >5- to 10-fold improvement; +++ indicating >10-fold improvement)
NLCEKASKTWTGNCGNTKHCDNQCRNWEGAAHGACHKRNGKWKCFCYFNC (Defensin like) [L3-71] | +++ (key: + indicating 1- to 5-fold improvement compared to DmAMP1; ++ indicating >5- to 10-fold improvement; +++ indicating >10-fold improvement) | +++ (key: + indicating 1- to 5-fold improvement compared to DmAMP1; ++ indicating >5- to 10-fold improvement; +++ indicating >10-fold improvement) | +++ (key: + indicating 1- to 5-fold improvement compared to DmAMP1; ++ indicating >5- to 10-fold improvement; +++ indicating >10-fold improvement)
NLCEKASKTWTGNCGNTKHCDNQCRNWEGAAHGACHKRSGKWKCFCYFNC (Defensin like) [L9-36] | + (key: + indicating 1- to 5-fold improvement compared to DmAMP1; ++ indicating >5- to 10-fold improvement; +++ indicating >10-fold improvement) | + (key: + indicating 1- to 5-fold improvement compared to DmAMP1; ++ indicating >5- to 10-fold improvement; +++ indicating >10-fold improvement) | + (key: + indicating 1- to 5-fold improvement compared to DmAMP1; ++ indicating >5- to 10-fold improvement; +++ indicating >10-fold improvement)
NLCEKASKTWTGNCGNTKHCDNQCRNWEGAKHGACHVRSGKHKCFCYFNC (Defensin like) [L9-22] | + (key: + indicating 1- to 5-fold improvement compared to DmAMP1; ++ indicating >5- to 10-fold improvement; +++ indicating >10-fold improvement) | +++ (key: + indicating 1- to 5-fold improvement compared to DmAMP1; ++ indicating >5- to 10-fold improvement; +++ indicating >10-fold improvement) | +++ (key: + indicating 1- to 5-fold improvement compared to DmAMP1; ++ indicating >5- to 10-fold improvement; +++ indicating >10-fold improvement)
NLCEKASKTWTGNCGNTKHCDTQCKNWEGAKHGACHKRNGKWKCFCYFNC (Defensin like) [L9-45] | + (key: + indicating 1- to 5-fold improvement compared to DmAMP1; ++ indicating >5- to 10-fold improvement; +++ indicating >10-fold improvement) | + (key: + indicating 1- to 5-fold improvement compared to DmAMP1; ++ indicating >5- to 10-fold improvement; +++ indicating >10-fold improvement) | + (key: + indicating 1- to 5-fold improvement compared to DmAMP1; ++ indicating >5- to 10-fold improvement; +++ indicating >10-fold improvement)
NLCEKASKTWTGNCGNTKHCDTQCKNWEGAKHGACHVRNGKWKCFCYFNC (Defensin like) [L6-69] | + (key: + indicating 1- to 5-fold improvement compared to DmAMP1; ++ indicating >5- to 10-fold improvement; +++ indicating >10-fold improvement) | +++ (key: + indicating 1- to 5-fold improvement compared to DmAMP1; ++ indicating >5- to 10-fold improvement; +++ indicating >10-fold improvement) | +++ (key: + indicating 1- to 5-fold improvement compared to DmAMP1; ++ indicating >5- to 10-fold improvement; +++ indicating >10-fold improvement)
NLCEKASKTWTGNCGNTKHCDTQCKSWEGAKHGACHKRNGKWKCFCYFNC (Defensin like) [L5-22] | + (key: + indicating 1- to 5-fold improvement compared to DmAMP1; ++ indicating >5- to 10-fold improvement; +++ indicating >10-fold improvement) | ++ (key: + indicating 1- to 5-fold improvement compared to DmAMP1; ++ indicating >5- to 10-fold improvement; +++ indicating >10-fold improvement) | ++ (key: + indicating 1- to 5-fold improvement compared to DmAMP1; ++ indicating >5- to 10-fold improvement; +++ indicating >10-fold improvement)
NLCEKASKTWTGNCGNTKHCDTQCKSWEGAKHGACHVRSGKHKCFCYFNC (Defensin like) [L9-29] | ++ (key: + indicating 1- to 5-fold improvement compared to DmAMP1; ++ indicating >5- to 10-fold improvement; +++ indicating >10-fold improvement) | +++ (key: + indicating 1- to 5-fold improvement compared to DmAMP1; ++ indicating >5- to 10-fold improvement; +++ indicating >10-fold improvement) | ++ (key: + indicating 1- to 5-fold improvement compared to DmAMP1; ++ indicating >5- to 10-fold improvement; +++ indicating >10-fold improvement)
NLCEKASKTWTGNCGNTKHCDTQCRNWEGAKHGACHKRNGKWKCFCYFNC (Defensin like) [L6-32] | +++ (key: + indicating 1- to 5-fold improvement compared to DmAMP1; ++ indicating >5- to 10-fold improvement; +++ indicating >10-fold improvement) | +++ (key: + indicating 1- to 5-fold improvement compared to DmAMP1; ++ indicating >5- to 10-fold improvement; +++ indicating >10-fold improvement) | +++ (key: + indicating 1- to 5-fold improvement compared to DmAMP1; ++ indicating >5- to 10-fold improvement; +++ indicating >10-fold improvement)
NLCERASKTWSGNCGNTKHCDNQCKNWEGAKHGACHVRNGKHKCFCYFNC [L6-60] (Defensin like) | + (key: + indicating 1- to 5-fold improvement compared to DmAMP1; ++ indicating >5- to 10-fold improvement; +++ indicating >10-fold improvement) | +++ (key: + indicating 1- to 5-fold improvement compared to DmAMP1; ++ indicating >5- to 10-fold improvement; +++ indicating >10-fold improvement) | +++ (key: + indicating 1- to 5-fold improvement compared to DmAMP1; ++ indicating >5- to 10-fold improvement; +++ indicating >10-fold improvement)
